According to US5703056A, “Non-invasive imaging of gene transfer” (priority 1995, dated 1997):
Read-outs that look alike come from different tables or passages of the source.

How the values were obtained:
HSV1-TK = HSV1-TK (Human alphaherpesvirus 1 strain 17, UniProt P0DTH5); experiment: Accumulation of radiolabelled marker substrates in RG2TK+ transduced and RG2 wild-type cells, normalized to TdR; type: cell-based, herpes simplex virus
Procedure: Source of radiolabelled "marker substrates". […] No carrier-added 5-[^123 I]-deoxyuridine (IUdR) was prepared by reacting 2-deoxyuridine (UdR) with carrier-free ^123 I-labelled sodium iodide in an iodogen coated reaction vial.
Comparison of "marker substrates" for identifying HSV1-tk gene expression in tissue culture. […] Each of these substrates were developed for or used as an anti-viral agent; they are phosphorylated by HSV1-TK and can be radiolabelled for noninvasive imaging.
Wild-type (nontransduced) RG2 cells were studied as a reference control. […] The cells were dislodged from the Petri dishes with a soft scraper, poured into 15 ml conical tubes, centrifuged and the medium aspirated. The tubes were cut to facilitate removing cells; they were blotted, placed in pre-weighed vials, weighed and prepared for counting. Samples were assayed for ^3 H- and ^14 C-radioactivity using a Packard B1600 TriCarb beta spectrometer using dual-channel and external standard splash and quench correction techniques. The medium was also counted before and following incubation. The data was expressed as a harvested cell-to-medium concentration ratio (dpm/g cells.div.dpm/ml medium).
Data analysis. […] These two related measures are useful to evaluate the intensity of the images (e.g., high "sensitivity") and the ability to differentiate between HSV1-TK and endogenous-TK in the images (e.g., high "selectivity"). The "selectivity" measure is not interpreted as a relative sensitivity (i.e., a value of 1 indicating equal sensitivity) of the substrate to HSV1-TK vs. endogenous-TK. […] They are intended for the direct comparison of substrates only.

[1] = Quantitative autoradiography of 2-[14C]-FIAU after in vivo transfection of RG2 tumors by the STK retrovirus; design: species or system rat; conditions: rat, iv, 50 uCi
Procedure: (§1) Imaging in vivo transfection of RG2 tumors by the STK retrovirus in experimental animals. […] The left hemisphere was inoculated with gp-STK-A2 vector-producer cells only. Ten days after inoculation, animals were injected i.v. with 50 uCi of 2-[^14 C]-FIAU, killed 24 hours later and the brain was processed for QAR and histology. The HSV1-tk transfected tumor was well visualized on the autoradiographic image (FIG. 11B). […] Surrounding normal brain and the area inoculated only with gp-STK-A2 vector-producer cells are poorly or not at all visualized. […] Quantitative analysis yielded mean activities of 0.34±0.24% dose/g for the in vivo transduced RG2(TK+) and 0.028±0.023% dose/g for the gp-STK-A2 vector-producer cell inoculated area prior to rinsing.

[2] = system: in vivo transduced RG2(TK+) tumor; experiment: as above; design: species or system rat; conditions: 24 h
Procedure: as §1

Chain of HSV1-TK (P0DTH5 whole entry): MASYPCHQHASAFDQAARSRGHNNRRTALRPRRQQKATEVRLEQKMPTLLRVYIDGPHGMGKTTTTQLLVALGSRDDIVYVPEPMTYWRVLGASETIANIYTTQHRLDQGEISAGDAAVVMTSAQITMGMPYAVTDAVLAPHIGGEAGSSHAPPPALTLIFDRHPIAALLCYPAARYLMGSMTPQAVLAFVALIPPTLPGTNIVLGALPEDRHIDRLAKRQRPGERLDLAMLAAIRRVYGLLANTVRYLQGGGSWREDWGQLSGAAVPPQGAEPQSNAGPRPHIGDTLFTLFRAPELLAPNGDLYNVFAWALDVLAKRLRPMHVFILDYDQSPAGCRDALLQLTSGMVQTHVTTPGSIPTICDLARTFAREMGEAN

**Q.** With `O=c1[nH]c(=O)n([C@@H]2O[C@H](CO)[C@@H](O)[C@@H]2F)cc1I` [FIAU, 2'-fluoro-5-iodo-1-β-D-arabinofuranosyl-uracil] as the molecule, how does the “Sensitivity* Δ(substrate/TdR)/Δ(HSV1TK mRNA/S28 RNA IOD)” value (HSV1-TK; Data from FIG. 5) read?
**A.** 0.0090

**Q.** What about the “Sensitivity* Δ(substrate/TdR)/Δ(HSV1TK mRNA/S28 RNA IOD)” value (HSV1-TK; Data from FIG. 7B (different RG2TK cell lines)) of the same molecule?
**A.** 0.0086

**Q.** What about the tissue uptake at 24 h ([1]; gp-STK-A2 vector-producer cell inoculated area, prior to rinsing, read-out: mean activity) of the same molecule?
**A.** 0.028 ± 0.023 %ID/g

**Q.** What about the tissue uptake at 24 h ([1]; in vivo transduced RG2(TK+) tumor, prior to rinsing, read-out: mean activity) of the same molecule?
**A.** 0.34 ± 0.24 %ID/g

**Q.** What about the tissue uptake at 24 h ([1]; in vivo transduced RG2(TK+) tumor, read-out: peak activity) of the same molecule?
**A.** 0.96 %ID/g

**Q.** And the adjacent brain activity ([2]; level of detection on the autoradiograms)?
**A.** below the level of detection

**Q.** And the peak activity ([2]; in vivo transduced RG2(TK+) tumor)?
**A.** 0.96 % dose/g
